In ChEMBL document CHEMBL1129579, “Carbohydrates in an acidic multivalent assembly: nanomolar P-selectin inhibitors” (J Med Chem, 1996):

Target: T1, P-selectin (Homo sapiens, UniProt P16109)
T1 sequence (P16109 whole entry): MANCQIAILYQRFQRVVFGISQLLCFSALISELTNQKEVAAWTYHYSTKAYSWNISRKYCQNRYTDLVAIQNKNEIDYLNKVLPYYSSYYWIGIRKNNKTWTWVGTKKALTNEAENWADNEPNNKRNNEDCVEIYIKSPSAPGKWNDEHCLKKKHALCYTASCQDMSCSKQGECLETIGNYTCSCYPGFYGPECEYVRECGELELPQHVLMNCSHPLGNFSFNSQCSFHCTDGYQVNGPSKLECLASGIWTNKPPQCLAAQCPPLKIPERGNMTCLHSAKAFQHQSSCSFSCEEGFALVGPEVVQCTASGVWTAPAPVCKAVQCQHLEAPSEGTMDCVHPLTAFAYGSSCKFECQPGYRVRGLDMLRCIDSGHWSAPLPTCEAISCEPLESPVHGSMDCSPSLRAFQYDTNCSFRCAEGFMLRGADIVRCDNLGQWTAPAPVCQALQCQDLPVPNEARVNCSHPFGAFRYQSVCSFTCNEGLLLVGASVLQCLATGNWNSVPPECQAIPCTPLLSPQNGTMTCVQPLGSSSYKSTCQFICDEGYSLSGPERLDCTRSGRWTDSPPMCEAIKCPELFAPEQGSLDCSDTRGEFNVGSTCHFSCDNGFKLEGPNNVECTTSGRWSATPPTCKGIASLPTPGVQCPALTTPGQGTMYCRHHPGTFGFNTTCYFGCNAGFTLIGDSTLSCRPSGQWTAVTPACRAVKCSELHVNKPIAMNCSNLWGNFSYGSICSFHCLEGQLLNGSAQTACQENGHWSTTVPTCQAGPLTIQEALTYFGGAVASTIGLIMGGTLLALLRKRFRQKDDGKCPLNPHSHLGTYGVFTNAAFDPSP
Experiment: Inhibitory activity against Selectin P IgG chimera binding to HL-60 cells, by binding to Selectin P
Assay type: cell-based

Structure (SMILES) | IC50
CCCCCCCCCCCCC#CC#CCCCCCCCCC(=O)NCCSCCCN(C(C)=O)[C@@H]1O[C@@H](CO)[C@@H](O[C@@H]2O[C@@H](CO)[C@H](O)[C@H](OCC(=O)O)[C@@H]2O)[C@H](O[C@@H]2O[C@@H](C)[C@@H](O)[C@H](O)[C@@H]2O)[C@@H]1O | 0.002 µM
CCCCCCCCCCCCC#CC#CCCCCCCCCC(=O)NCCO | 0.5 µM
